# Laboratory results reported in patent US20240043473A1, “NOOTROPIC PEPTIDES FOR TREATING LYSOSOMAL STORAGE DISEASES” (Phoenix Nest Inc., priority 2021, published 2024).
# “Also recorded” adds a separate entry of the source. No end group written: not given here.
# Key:
# [1] = system: CA1 pyramidal neurons in acute hippocampal slices from Hgsnat-Geo and Hgsnat^P304L mice; assay: Miniature excitatory postsynaptic currents (mEPSC), whole cell voltage clamp in acute hippocampal slices; assay type: cell-based, mouse; conditions: for mEPSC amplitude and frequency deficits: Hgsnat-Geo and Hgsnat^P311L (P304L) slices
# Procedure: Models and developmental time points: Hippocampal slices from Hgsnat-Geo and Hgsnat^P304L mice; P14-20 and P45-60.
# Method: Whole cell voltage clamp electrophysiology recordings (miniature synaptic currents) were conducted on CA1 pyramidal neurons in acute hippocampal slices.
# Acute hippocampal slices were prepared as follows. Briefly, animals were anaesthetized deeply with isoflurane and decapitated. The brain was dissected carefully and transferred rapidly into an ice-cold (0-4° C.) solution containing the following (in mM): 250 sucrose, 2 KCl, 1.25 NaH2PO4, 26 NaHCO3, 7 MgSO4, 0.5 CaCl2 and 10 glucose, pH 7.4. The solution was oxygenated continuously with 95% O2 and 5% CO2, 330-340 mOsm/L. Transverse hippocampal slices (thickness, 300 μm) were cut using a vibratome (VT1000S; Leica Microsystems), transferred to a bath at room temperature (23° C.) with standard ACSF at pH 7.4 containing the following (in mM): 126 NaCl, 3 KCl, 1 NaH2PO^4, 25 NaHCO3, 2 MgSO4, 2 CaCl2), 10 glucose, continuously saturated with 95% 02 and 5% CO2 and allowed to recover for 1 h. During the experiments, slices were transferred to the recording chamber at physiological temperature (30-33° C.) continuously perfused with standard ACSF, as described above, at 2 ml/min. Pyramidal CA1 neurons from the hippocampus were identified visually using a 40× water immersion objective. Whole-cell patch-clamp recordings were obtained from single cells in voltage- or current-clamp mode and only 1 cell per slice was recorded to enable post-hoc identification and immunohistochemical processing. Recording pipettes (4-6 MΩ) were filled with a K-gluconate based solution for voltage-clamp recordings (in mM): 130 K-gluconate, 10 KCl, 5 diNa-phosphocreatine. 10 HEPES, 2.5 MgCl2, 0.5CaCl2,1 EGTA, 3 ATP-Tris, 0.4 GTP-Li, 0.3% biocytin, pH 7.2-7.4, 280-290 mOsm/L.
# After obtaining whole cell configuration, passive membrane properties were monitored for 5 min and current clamp recordings were done to measure action potential characteristics. […]. Cells were voltage clamped at −70 mV for mEPSCs recording and then held at 0 mV (calculated from the reversal potential of Cl) for mIPSCs recording. Data acquisition (filtered at 2-3 kHz and digitized at 15 kHz; Digidata 1440A, Molecular Devices, CA, USA) was performed using the Axopatch 200B amplifier and the Clampex 10.6 software (Molecular Devices). Both mEPSCs and mIPSCs were recorded for 7 min and a running template on a stable baseline (minimum of 30 events) was used for the analysis of miniature events on MiniAnalysis. Clampfit 10.2 software was used for analysis of action potential characteristics and other passive membrane properties.
# This example tested AVP6's effect on synaptic signaling in acute hippocampal slices of MPS IIIC (both Hgsnat^Geo and Hgsnat^P304L) mice. […]
# [2] = system: somatosensory cortex and hippocampus of Hgsnat^P304L mice; assay: Brain immunohistochemistry after chronic treatment (synaptic markers, astrocytosis, microgliosis, lysosomal puncta); assay type: in vivo, mouse
# Procedure: Mouse brains were collected from animals perfused with 4% PFA in PBS and post-fixed in 4% PFA in PBS overnight. Brains were cryopreserved in 30% sucrose for 2 days at 4° C., embedded in Tissue-Tek® OCT Compound and stored at −80° C. Brains were cut in 40 μm-thick sections and stored in cryopreservation buffer (0.05 M sodium phosphate buffer pH 7.4, 15% sucrose, 40% ethylene glycol) at −20° C. pending immunohistochemistry. Mouse brain sections were washed 3 times with PBS and permeabilized/blocked by incubating in 5% bovine serum albumin (BSA), 0.3% Triton X-100 in PBS for 1 h at room temperature. Incubation with primary antibodies, diluted in 1% BSA, 0.3% Triton X-100 in PBS, was performed overnight at 4° C.
# The mouse brain sections were washed 3 times with PBS and counterstained with Alexa Fluor-labeled secondary antibodies (dilution 1:400) for 2 h at room temperature. After washing 3 times with PBS, the mouse brain sections were treated with TrueBlack® Lipofuscin Autofluorescence Quencher (Biotium, 23007, dilution 1:10) for 1 min, and then again washed 3 times with PBS. The slides were mounted with Prolong Gold Antifade mounting reagent with DAPI (Invitrogen, P36935) and analyzed using Leica DM 5500 Q upright confocal microscope (10×, 40×, and 63× oil objective, N.A. 1.4). Images were processed and quantified using ImageJ 1.50i software (National Institutes of Health. Bethesda, MD, USA) in a blinded fashion. Panels were assembled with Adobe Photoshop.
# Starting from 3 weeks of age, WT C57B16 and homozygous Hgsnat^P304L male and female mice were randomly divided in treatment and control groups (6-13 mice/sex/genotype/treatment; see Table I). The control group was daily administered with saline (5 μL to each nostril), while for the treatment group, saline was supplemented with 125 µg of AVP6/mL, which would result in a dose of approximately 50 μg/kg BW/day. The peptide formulation was prepared once, aliquoted and kept frozen at −80° C. until use. At 4 months, all mice were studied by EPM, OF, YM and NOR behavioral tests. Administration of the drug or saline was continued through the days on which the assays were conducted. Then approximately at 5 months 4-5 mice in each group were sacrificed. Their blood plasma was collected, and their tissues were either snap-frozen or fixed and cryopreserved to analyze CNS pathology as described above. For the remaining mice, treatment was continued and their behaviour was studied again at the age of 6 months using OF. NOR and YM tests. Starting from the age of 8 months, Hgsnat^P304L treated and untreated mice were daily studied for the signs of urinary retention. When such signs were detected, the mice were studied by ERG and sacrificed within 1-2 days. Finally, the remaining treated and untreated WT mice were studied by ERG and sacrificed at the end of the study, approximately at 10 months of age.
# After completion of the behavioural analysis at 4 months, 50% of mice in each group were sacrificed for analysis of CNS pathology and biochemical testing. To study the effect of the treatment on synaptic architecture, we have stained the brain sections for presynaptic (VGLUT1) and postsynaptic (PSD-95, BDNF) markers and quantified their levels in the CA1 area of hippocampi and in layers 3-4 of somatosensory cortex.
# The terminal CNS pathology was studied using the same set of biomarkers as at 4 months, either by IHC (astrocytosis, microgliosis, synaptic markers SYN1, PSD-95, […], BDNF) or by biochemical (total β-hexosaminidase activity, expression levels of inflammatory cytokines) assays.
# [3] = chronic daily 50 μg/kg BW from 3 weeks, Hgsnat^P304L mice at sacrifice (10-11 months)
substance,measurement,setting,value
"AVP6: N-terminally acetylated Semax, a nootropic peptide having the amino acid sequence of MEHFPGP (SEQ ID NO:1) (Ac-MEHFPGP)",mEPSC amplitude and frequency deficits,"[1]; 10 μM bath application, P14-20",recovered deficits in mEPSC amplitude and frequency; also recorded: deficit is rescued
same,mEPSC amplitude and frequency deficits,"[1]; 10 μM bath application, P45-60",recovered deficits in mEPSC amplitude and frequency; also recorded: deficit is rescued
same,mEPSC amplitude and frequency in WT animals,"[1]; 10 μM bath application, P45-60, WT slices",trend for an increase
same,reduced amplitude and frequency of mEPSC,"[1]; acute bath application, MPSIIIC mouse hippocampal slices (Example 1, FIG. 1)",significant restoration
same,"levels of synaptic markers VGLUT1, PSD-95 and BDNF in CA1 hippocampus and somatosensory cortex","[2]; chronic daily 50 μg/kg BW from 3 weeks, Hgsnat^P304L mice at 5 months",are rescued
same,GFAP+ astrocytes and CD68+ activated microglia in cortex and hippocampus,"[2]; chronic daily 50 μg/kg BW from 3 weeks, Hgsnat^P304L mice at 5 months, vs saline",normalizes astrocytosis and microgliosis; also recorded: are reduced
same,levels of post-synaptic proteins PSD-95 and BDNF,[2]; [3],completely recovered; also recorded: are rescued in hippocampus and partially rescued in the somatosensory cortex
same,levels of presynaptic proteins GLUT1 (VGLUT1) and SYN1,[2]; [3],"either increased in the AVP6-treated as compared with saline-treated Hgsnat^P304L mice, or remained significantly lower than those in WT animals; also recorded: are rescued in hippocampus and partially rescued in the somatosensory cortex"
same,levels and sizes of LAMP2+/HS+ or GM2-ganglioside+ lysosomal puncta in cortical/hippocampal neurons,"[2]; chronic daily 50 μg/kg BW, Hgsnat^P304L mice at 5 months, vs saline",remained similar
same,"markers of astrocytosis and microgliosis, GFAP and CD68","[2]; chronic daily 50 μg/kg BW, Hgsnat^P304L mice at 10-11 months, vs saline, cortex levels remained above WT",significantly reduced; also recorded: reduces it; also recorded: reduces levels of activated GFAP+ astrocytes in the cortex (D) and CD68+ microglia in both cortex and hippocampus
same,LAMP2 levels in brain sections compared with WT,"[2]; chronic daily 50 μg/kg BW, Hgsnat^P304L mice at terminal timepoint",remained significantly increased
